Test results taken from the supplement of paper PMC10307832.

Legend:
Experiment in all cases: relative viability (nuclei count vs DMSO), 5 days (fraction); higher = more cells survive
MK-2206 + Luminespib = compound: NC1(c2ccc(-c3nc4ccn5c(=O)[nH]nc5c4cc3-c3ccccc3)cc2)CCC1 [MK-2206] + CCNC(=O)c1noc(-c2cc(C(C)C)c(O)cc2O)c1-c1ccc(CN2CCOCC2)cc1 [Luminespib] (partner 0.01 µM)
Procedure, shortened: (§1)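 Cells from lung cancer lines were seeded into 1536-well plates and, one day later, dosed by pin tool. Treatments were either a single drug or a fixed dose of an anchor drug with five library-drug doses (not always all listed) in √10 steps. After 5 days, nuclei were stained in a one-step fixation (final 0.05% Triton X-100, 1% formaldehyde, 1 ug/ml Hoechst) and counted on 4× images, and relative viability is the treated-to-vehicle nuclei ratio, as the median of duplicate plates.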

MK-2206 + Crizotinib = compound: NC1(c2ccc(-c3nc4ccn5c(=O)[nH]nc5c4cc3-c3ccccc3)cc2)CCC1 [MK-2206] + C[C@@H](Oc1cc(-c2cnn(C3CCNCC3)c2)cnc1N)c1c(Cl)ccc(F)c1Cl [Crizotinib] (partner 1 µM)
Procedure, shortened: as §1

Pictilisib + Vorinostat = compound: CS(=O)(=O)N1CCN(Cc2cc3nc(-c4cccc5[nH]ncc45)nc(N4CCOCC4)c3s2)CC1 [Pictilisib] + O=C(CCCCCCC(=O)Nc1ccccc1)NO [Vorinostat] (partner 1 µM)
Procedure, shortened: as §1

MK-2206 + Palbociclib = compound: NC1(c2ccc(-c3nc4ccn5c(=O)[nH]nc5c4cc3-c3ccccc3)cc2)CCC1 [MK-2206] + CC(=O)c1c(C)c2cnc(Nc3ccc(N4CCNCC4)cn3)nc2n(C2CCCC2)c1=O [Palbociclib] (partner 0.5 µM)
Procedure, shortened: as §1

MK-2206 + Linsitinib = compound: NC1(c2ccc(-c3nc4ccn5c(=O)[nH]nc5c4cc3-c3ccccc3)cc2)CCC1 [MK-2206] + C[C@]1(O)C[C@@H](c2nc(-c3ccc4ccc(-c5ccccc5)nc4c3)c3c(N)nccn32)C1 [Linsitinib] (partner 1 µM)
Procedure, shortened: as §1

Cell Line | relative viability (MK-2206 + Luminespib; first compound 0.01 µM) | relative viability (MK-2206 + Luminespib; first compound 0.03162 µM) | relative viability (MK-2206 + Luminespib; first compound 0.3162 µM) | relative viability (MK-2206 + Luminespib; first compound 1 µM) | relative viability (MK-2206 + Crizotinib; first compound 0.01 µM) | relative viability (MK-2206 + Crizotinib; first compound 0.03162 µM) | relative viability (MK-2206 + Crizotinib; first compound 0.3162 µM) | relative viability (MK-2206 + Crizotinib; first compound 1 µM) | relative viability (Pictilisib + Vorinostat; first compound 0.02 µM) | relative viability (Pictilisib + Vorinostat; first compound 0.06325 µM) | relative viability (Pictilisib + Vorinostat; first compound 0.6325 µM) | relative viability (Pictilisib + Vorinostat; first compound 2 µM) | relative viability (MK-2206 + Palbociclib; first compound 0.01 µM) | relative viability (MK-2206 + Palbociclib; first compound 0.03162 µM) | relative viability (MK-2206 + Palbociclib; first compound 0.3162 µM) | relative viability (MK-2206 + Palbociclib; first compound 1 µM) | relative viability (MK-2206 + Linsitinib; first compound 0.01 µM) | relative viability (MK-2206 + Linsitinib; first compound 0.03162 µM) | relative viability (MK-2206 + Linsitinib; first compound 0.3162 µM) | relative viability (MK-2206 + Linsitinib; first compound 1 µM)
LXF-289 | 0.661 | 0.722 | 0.728 | 0.771 | 0.786 | 0.819 | 0.841 | 0.888 | 0.885 | 0.696 | 0.763 | 0.557 | 0.581 | 0.628 | 0.594 | 0.576 | 0.954 | 0.988 | 0.966 | 0.99
NCI-H460 | 0.035 | 0.0282 | 0.0298 | 0.024 | 0.86 | 0.905 | 0.855 | 0.893 | 0.796 | 0.757 | 0.842 | 0.155 | 0.137 | 0.224 | 0.142 | 0.0552 | 0.733 | 0.801 | 0.325 | 0.229
NCI-H1792 | 0.467 | 0.455 | 0.473 | 0.394 | 0.968 | 1 | 0.999 | 0.944 | – | – | – | – | 0.631 | 0.751 | 0.609 | 0.653 | 0.573 | 0.596 | 0.549 | 0.636
EMC-BAC-2 | 1.22 | 1.18 | 1.08 | 1.07 | 0.714 | 0.729 | 0.781 | 0.745 | 0.88 | 0.615 | 0.337 | 0.286 | 0.511 | 0.517 | 0.462 | 0.456 | 0.811 | 0.821 | 0.769 | 0.748
CAL-12T | 0.362 | 0.515 | 0.457 | 0.477 | 0.546 | 0.688 | 0.488 | 0.491 | 0.755 | 0.664 | 0.629 | 0.283 | 0.383 | 0.277 | 0.543 | 0.411 | 0.742 | 0.877 | 0.761 | 0.739
ChaGo-K-1 | 0.668 | 0.661 | 0.541 | 0.679 | 1.08 | 1.11 | 0.961 | 1.14 | 0.797 | 0.773 | 0.64 | 0.609 | 0.961 | 0.98 | 0.937 | 0.932 | – | – | – | –
COR-L 105 | 0.868 | 0.803 | 0.888 | 0.729 | 0.789 | 0.798 | 0.782 | 0.598 | 0.91 | 0.874 | 0.594 | 0.606 | 0.428 | 0.436 | 0.441 | 0.408 | 0.941 | 0.895 | 0.67 | 0.629
NCI-H1944 | 0.729 | 0.806 | 0.685 | 0.676 | 1.16 | 1.16 | 1.02 | 1.07 | 0.61 | 0.494 | 0.375 | 0.201 | 0.338 | 0.332 | 0.3 | 0.296 | 1.27 | 1.17 | 1.15 | 1.17
